This passage reports Kd results from BindingDB's records for doi:10.1074/jbc.M114.556480 (Yale University, 2014).

Non-standard residues stand in square brackets, D forms with d. Residues, ends and D or L forms follow the SMILES beside them. pY = N[C@@H](Cc1ccc(OP(=O)(O)O)cc1)C(=O)O

In the assay the target is T1, Tyrosine-protein kinase ABL1 [131-238] (Human, UniProt P00519).
T1 construct: 131-238
T1 sequence (P00519 whole entry): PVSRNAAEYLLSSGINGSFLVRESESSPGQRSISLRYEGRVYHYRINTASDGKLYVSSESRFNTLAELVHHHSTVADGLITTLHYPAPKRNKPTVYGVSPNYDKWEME
Description: Fluorescence Polarization Assay. As to conditions: pH 7.25. As for the experimental part: SH2 domains were dialyzed into binding buffer (50 mM Hepes, pH 7.25, 150 mM NaCl, 0.01% Nonidet P-40, 5% glycerol) and a 30-μl volume serially diluted into pre-chilled 384-well low flange black flat bottom non-binding microplates (Corning) while on ice. 5 μl of 35 nM fluorescent peptide dissolved in binding buffer was added to each well (final concentration 5 nM), mixed 5 times by pipetting, and plates were incubated at 4 °C for 40 min. Fluorescence polarization experiments were performed with an Analyst AD (Molecular Devices, Sunnyvale, CA) spectrofluorimeter. Each well was excited using 485 nm light and emission was read at 530 nm. Fluorescence polarization was measured 1 mm from the bottom of each well with an integration time of 560 ms. All experiments were conducted in triplicate.
(Polarisation of emitted light reports the rotation of a fluorescent probe.)

In the case of `C[C@@H](O)[C@H](NC(=O)[C@H](CC(=O)O)NC(=O)[C@H](CC(=O)O)NC(=O)[C@@H](N)CCC(=O)O)C(=O)N[C@@H](Cc1ccc(OP(=O)(O)O)cc1)C(=O)N[C@@H](CC(=O)O)C(=O)NCC(=O)N[C@@H](Cc1ccc(O)cc1)C(=O)N[C@@H](CCC(=O)O)C(=O)O` [EDDTpYDGYE] (H-EDDT[pY]DGYE-OH), the Kd (as a rule, a measure of binding affinity in units of concentration) is > 61.9 µM.

`CC(C)[C@H](NC(=O)[C@@H]1CCCN1C(=O)[C@H](CCC(=O)O)NC(=O)[C@@H](N)CO)C(=O)N[C@@H](Cc1ccc(OP(=O)(O)O)cc1)C(=O)N[C@@H](CCC(=O)O)C(=O)N[C@H](C(=O)N[C@H](C(=O)N[C@@H](CCC(=O)O)C(=O)O)[C@@H](C)O)[C@@H](C)O` [SEPVpYETTE] (H-SEPV[pY]ETTE-OH) displayed a Kd of 3.27 µM.

In the case of `CC[C@H](C)[C@H](NC(=O)[C@@H]1CCCN1C(=O)[C@H](CO)NC(=O)[C@@H](N)CO)C(=O)N[C@@H](Cc1ccc(OP(=O)(O)O)cc1)C(=O)N[C@@H](CCC(=O)O)C(=O)N[C@@H](CC(=O)O)C(=O)N[C@@H](C)C(=O)N[C@@H](C)C(=O)O` [SSPIpYEDAA] (H-SSPI[pY]EDAA-OH), the Kd came to 3.33 µM.
